From ChEMBL document CHEMBL1134353, “X-Ray structure of citrate bound to Src SH2 leads to a high-affinity, bone-targeted Src SH2 inhibitor” (J Med Chem, 2001)

Tests used:
[1] = target: Proto-oncogene tyrosine-protein kinase Src (Homo sapiens, UniProt P12931); experiment: Inhibition of binding to Src SH2 domain
Oryctolagus cuniculus = organism: Oryctolagus cuniculus; experiment: Ability to inhibit osteoclast mediated resorption of dentine in rabbit; format: functional

Proto-oncogene tyrosine-protein kinase Src, sequence (P12931 2-536 limits assumed): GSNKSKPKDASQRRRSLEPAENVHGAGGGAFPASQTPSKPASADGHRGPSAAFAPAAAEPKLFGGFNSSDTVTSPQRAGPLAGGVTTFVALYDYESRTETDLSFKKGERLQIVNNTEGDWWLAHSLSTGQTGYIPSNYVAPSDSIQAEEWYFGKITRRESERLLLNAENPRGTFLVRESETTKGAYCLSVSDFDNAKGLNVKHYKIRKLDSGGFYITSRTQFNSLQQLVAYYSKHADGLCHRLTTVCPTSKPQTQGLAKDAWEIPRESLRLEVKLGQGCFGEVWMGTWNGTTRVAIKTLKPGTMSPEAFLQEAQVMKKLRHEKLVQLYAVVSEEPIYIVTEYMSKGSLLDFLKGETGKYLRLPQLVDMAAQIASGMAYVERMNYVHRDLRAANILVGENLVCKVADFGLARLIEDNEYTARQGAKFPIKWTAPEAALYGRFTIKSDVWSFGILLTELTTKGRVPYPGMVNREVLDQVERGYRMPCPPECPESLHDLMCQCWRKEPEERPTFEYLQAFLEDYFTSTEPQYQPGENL

SMILES | IC50 [1] [nM] | IC50 (Oryctolagus cuniculus) [nM]
CC(=O)N[C@@H](Cc1ccc(CP(=O)(O)O)cc1)C(=O)N[C@@H](C)c1ccc(OCC2CCCCC2)c(C(N)=O)c1 | 7900 | 
CC(=O)N[C@@H](Cc1ccc(C(P(=O)(O)O)P(=O)(O)O)cc1)C(=O)N[C@@H](C)c1ccc(OCC2CCCCC2)c(C(N)=O)c1 | 350 | 2000
